{
  "source": "patent US20110021507A1",
  "about": "“INHIBITING ANTIPSYCHOTIC-INDUCED WEIGHT GAIN” (Theracos, Inc., priority 2009, published 2011)",
  "key": {"[1]": {"conditions": "at 90 degrees; cited from earlier work"}, "[2]": {"experiment": "Olanzapine-induced weight gain in a rat model (Alzet minipumps)", "assay_type": "in vivo, Wistar-Han female rats", "conditions": "OLZ 10 mg/kg/day; for effect on weight gain (main effect of Treatment, 2-way repeated measures ANOVA): OLZ vs VEH p=0.042, OLZ vs OLZ+TZP p=0.01, TZP 5 mg/kg/day", "procedure": "Arrow indicates pump implantation and solid bar over the x-axis indicates the drug treatment interval. Telenzepine was administered at a dose of 5 mg/kg/day. […] The solid line indicates the effect of OLZ administered alone (OLZ-Induced weight gain), while dashed lines indicate groups receiving TZP, either alone (dashed line) or co-administered with the 10.0 mg/kg OLZ dose (dot-dash-dot line). The dotted line indicates the weight gain in animals receiving only Vehicle treatments. […] The rats were divided into the following four groups: Group 1—Control: Vehicle (NMP:DMSO:PEG) alone Group 2—OLZ (10 mg/kg/day) alone Group 3—TZP (5 mg/kg/day) alone Group 4—OLZ (10 mg/kg/day)+TZP (5 mg/kg/day) […] Two 2-way repeated measures ANOVAs were run: 1) Comparing No Treatment (VEH) to OLZ alone (addressing the question of whether or not OLZ induced weight gain), 2) Comparing OLZ alone to OLZ+TZP (addressing the question of whether or not TZP co-administration prevented OLZ-Induced weight gain)."}, "[3]": {"test_system": "muscarinic receptor", "conditions": "cited from earlier work"}, "[4]": {"test_system": "cardiac receptors", "conditions": "cited from earlier work"}, "[5]": {"test_system": "cortical receptors", "conditions": "cited from earlier work"}, "[6]": {"conditions": "patients being administered olanzapine; cited from earlier work"}},
  "data": [
    {"molecule": "Cc1scc2c1N(C(=O)CN1CCN(C)CC1)c1ccccc1NC2=O", "note": "[Telenzepine, 4,9-Dihydro-3-methyl-4-[(4-methyl-1-piperazinyl)acetyl]-10H-thieno[3,4-b][1,5]benzodiazepin-10-one]", "values": [
      {"measurement": "half time of interconversion of the two forms", "setting": "[1]", "value": "approximately 200 hours"},
      {"measurement": "effect on weight gain (main effect of Treatment, 2-way repeated measures ANOVA)", "setting": "[2]", "value": "significant reduction in OLZ-induced weight gain"}
    ]},
    {"molecule": "Cc1scc2c1N(C(=O)CN1CCN(C)CC1)c1ccccc1NC2=O", "note": "[(+) form of telenzepine]", "values": [
      {"measurement": "antimuscarinic activity", "setting": "[3]", "value": "potent antimuscarinic activity"},
      {"measurement": "factor by which the (+) form is more potent than the (−) form", "setting": "[4]", "value": 50},
      {"measurement": "factor by which the (+) form is more effective than the (−) isomer", "setting": "[5]", "value": 400}
    ]},
    {"molecule": "Cc1scc2c1N(C(=O)CN1CCN(C)CC1)c1ccccc1NC2=O", "note": "[(−) form]", "values": [
      {"measurement": "antimuscarinic activity", "setting": "[3]", "value": "considerably less active"}
    ]},
    {"molecule": "Cc1cc2c(s1)Nc1ccccc1N=C2N1CCN(C)CC1", "note": "[Olanzapine, 2-methyl-4-(4-methyl-1-piperazinyl)-10H-thieno[2,3-b][1,5]benzodiazepine]", "values": [
      {"measurement": "effect on weight gain (main effect of Treatment, 2-way repeated measures ANOVA)", "setting": "[2]", "value": "induced a significant amount of weight gain over No Treatment controls"},
      {"measurement": "difference in weight gain versus Vehicle treated rats", "setting": "[2]; Treatment Day 12 (peak OLZ-induced gain), TZP 5 mg/kg/day by minipump", "value": 6.2, "unit": "%"},
      {"measurement": "patients experiencing bodyweight gain of greater than 7%", "setting": "[6]", "value": "≤ 30", "unit": "%"}
    ]}
  ]
}
